Biological target: T1, N-formyl peptide receptor 2 (Homo sapiens, UniProt P25090)
T1 sequence (P25090 whole entry): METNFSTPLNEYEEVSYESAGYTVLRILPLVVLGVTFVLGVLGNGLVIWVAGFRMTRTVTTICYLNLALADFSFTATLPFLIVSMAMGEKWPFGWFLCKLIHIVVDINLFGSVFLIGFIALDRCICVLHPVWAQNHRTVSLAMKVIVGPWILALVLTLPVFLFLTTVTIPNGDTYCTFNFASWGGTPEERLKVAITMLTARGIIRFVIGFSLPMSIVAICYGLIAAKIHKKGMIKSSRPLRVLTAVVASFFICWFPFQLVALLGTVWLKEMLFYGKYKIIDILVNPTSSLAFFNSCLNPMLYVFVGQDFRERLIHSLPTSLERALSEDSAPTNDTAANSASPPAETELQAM
Test: FPRL1 fluorescent ligand binding inhibitors, dose response, selectivity assay for FPR1 ligand SAR project, cell-based, flow cytometry, Ki from IC50 (AID 723)

| IC50 [µM] | SMILES |
| --- | --- |
| > 66.7 | COc1ccccc1-c1c(C(F)(F)F)oc2cc(OC(=O)c3ccco3)ccc2c1=O |
| > 66.7 | O=C(Oc1ccc2c(=O)c(-c3ccccc3Cl)c(C(F)(F)F)oc2c1)c1cccs1 |
| > 66.7 | CC(=O)C1C(=O)C(=O)N(CCc2c(C)[nH]c3ccccc23)C1c1cccc(F)c1 (configuration not stated) |
| > 66.7 | COc1ccc(C(=O)C2C(=O)C(=O)N(CCc3c[nH]c4ccccc34)C2c2ccc(C(C)C)cc2)cc1 (configuration not stated) |
| > 66.7 | COc1ccc(-c2c(C)[nH]n3c(=O)c4c(nc23)CCCC4)cc1 |
| > 66.7 | Cc1nc2c(-c3ccc(Cl)cc3)c(C(F)(F)F)[nH]n2c(=O)c1Cc1ccccc1 |
| > 66.7 | COc1ccc(C2C(C(=O)c3cccs3)C(=O)C(=O)N2CCCn2ccnc2)cc1 (configuration not stated) [1-(3-imidazol-1-ylpropyl)-2-(4-methoxyphenyl)-4-oxidanyl-3-thiophen-2-ylcarbonyl-2H-pyrrol-5-one] |
| > 66.7 | COc1cc(C2C(C(C)=O)C(=O)C(=O)N2c2ccc(Br)cc2)ccc1O (configuration not stated) [1-(4-bromophenyl)-3-ethanoyl-2-(3-methoxy-4-oxidanyl-phenyl)-4-oxidanyl-2H-pyrrol-5-one] |
| > 66.7 | Cc1sc2c(c1C)c(=O)n(Cc1ccccc1)c(=O)n2Cc1ccccc1F [1-[(2-fluorophenyl)methyl]-5,6-dimethyl-3-(phenylmethyl)thieno[2,3-d]pyrimidine-2,4-dione] |
| > 66.7 | COc1ccc(C2C(C(=O)c3cccs3)C(=O)C(=O)N2CCN2CCOCC2)c(OC)c1 (configuration not stated) [2-(2,4-dimethoxyphenyl)-1-(2-morpholin-4-ylethyl)-4-oxidanyl-3-thiophen-2-ylcarbonyl-2H-pyrrol-5-one] |
| > 66.7 | COc1ccc(C2C(C(=O)c3ccco3)C(=O)C(=O)N2CCCN2CCOCC2)cc1OC (configuration not stated) [2-(3,4-dimethoxyphenyl)-3-(furan-2-carbonyl)-4-hydroxy-1-(3-morpholin-4-ylpropyl)-2H-pyrrol-5-one] |
| > 66.7 | O=C1C(=O)N(CCc2ccccc2)C(c2ccc(Cl)cc2)C1C(=O)c1cccs1 (configuration not stated) [2-(4-chlorophenyl)-4-hydroxy-1-(2-phenylethyl)-3-(thiophene-2-carbonyl)-2H-pyrrol-5-one] |
| > 66.7 | O=C(O)C1CCCCC1C(=O)Nc1ccc(Br)cc1 (configuration not stated) [2-[(4-bromoanilino)-oxomethyl]-1-cyclohexanecarboxylic acid] |
| > 66.7 | CCC(C)(C(=O)NC1CCCCC1)N(Cc1cccs1)C(C)=O (configuration not stated) [2-[acetyl(2-thenyl)amino]-N-cyclohexyl-2-methyl-butyramide] |
| > 66.7 | COc1ccc(-c2c(C(F)(F)F)oc3cc(OC(=O)c4ccco4)ccc3c2=O)cc1OC [2-furancarboxylic acid [3-(3,4-dimethoxyphenyl)-4-oxo-2-(trifluoromethyl)-1-benzopyran-7-yl] ester] |
| > 66.7 | O=C(Oc1ccc2c(=O)c(Oc3ccccc3Br)c(C(F)(F)F)oc2c1)c1cccs1 [2-thiophenecarboxylic acid [3-(2-bromophenoxy)-4-oxo-2-(trifluoromethyl)-1-benzopyran-7-yl] ester] |
| > 66.7 | COc1cc(C2C(C(=O)c3cc4ccccc4o3)C(=O)C(=O)N2CCN(C)C)ccc1O (configuration not stated) [3-(1-benzofuran-2-carbonyl)-1-[2-(dimethylamino)ethyl]-4-hydroxy-2-(4-hydroxy-3-methoxyphenyl)-2H-pyrrol-5-one] |
| > 66.7 | COc1ccc(C2C(C(=O)c3cc4ccccc4o3)C(=O)C(=O)N2CCN(C)C)cc1OC (configuration not stated) [3-(1-benzofuran-2-carbonyl)-2-(3,4-dimethoxyphenyl)-1-[2-(dimethylamino)ethyl]-4-hydroxy-2H-pyrrol-5-one] |
| > 66.7 | O=C1C(=O)N(CCCn2ccnc2)C(c2cccnc2)C1C(=O)c1cc2ccccc2o1 (configuration not stated) [3-(1-benzofuran-2-carbonyl)-4-hydroxy-1-(3-imidazol-1-ylpropyl)-2-pyridin-3-yl-2H-pyrrol-5-one] |
| > 66.7 | O=C1C(=O)N(CCCN2CCOCC2)C(c2cccnc2)C1C(=O)c1cc2ccccc2o1 (configuration not stated) [3-(1-benzofuran-2-carbonyl)-4-hydroxy-1-(3-morpholin-4-ylpropyl)-2-pyridin-3-yl-2H-pyrrol-5-one] |
| > 66.7 | COc1ccc(-c2c(C(F)(F)F)oc3c(CN4CCOCC4)c(O)ccc3c2=O)cc1OC [3-(3,4-dimethoxyphenyl)-7-hydroxy-8-(4-morpholinylmethyl)-2-(trifluoromethyl)-1-benzopyran-4-one] |

| IC50 [µM] | SMILES |
| --- | --- |
| > 66.7 | COc1ccc(C2C(C(=O)N3CCCC(C)C3)c3ccccc3C(=O)N2C)cc1 (configuration not stated) [3-(4-methoxyphenyl)-2-methyl-4-(3-methylpiperidin-1-yl)carbonyl-3,4-dihydroisoquinolin-1-one] |
| > 66.7 | O=C1C(=O)N(CCCn2ccnc2)C(c2cccnc2)C1C(=O)c1ccco1 (configuration not stated) [3-(furan-2-carbonyl)-4-hydroxy-1-(3-imidazol-1-ylpropyl)-2-pyridin-3-yl-2H-pyrrol-5-one] |
| > 66.7 | COc1ccc(OC)c(C2C(C(=O)c3ccc(C)cc3)C(=O)C(=O)N2CCC(=O)O)c1 (configuration not stated) [3-[(3E)-2-(2,5-dimethoxyphenyl)-3-[(4-methylphenyl)-oxidanyl-methylidene]-4,5-bis(oxidanylidene)pyrrolidin-1-yl]propanoic acid] |
| > 66.7 | COc1ccc(-c2c(C(F)(F)F)oc3cc(OC(=O)c4cccnc4)ccc3c2=O)cc1OC [3-pyridinecarboxylic acid [3-(3,4-dimethoxyphenyl)-4-oxo-2-(trifluoromethyl)-1-benzopyran-7-yl] ester] |
| > 66.7 | Cc1cccc(C2CC(=O)NC3=C2C(=O)CC(c2cccs2)C3)c1 (configuration not stated) [4-(3-methylphenyl)-7-thiophen-2-yl-1,3,4,6,7,8-hexahydroquinoline-2,5-dione] |
| > 66.7 | O=C(O)CCCN1C(=O)C(=O)C(C(=O)c2ccccc2)C1/C=C/c1ccccc1 (configuration not stated) [4-[(4E)-2,3-bis(oxidanylidene)-4-[oxidanyl(phenyl)methylidene]-5-[(E)-2-phenylethenyl]pyrrolidin-1-yl]butanoic acid] |
| > 66.7 | COc1ccc(C2C(C(=O)c3ccco3)C(=O)C(=O)N2CCN2CCOCC2)c(OC)c1 (configuration not stated) [5-(2,4-dimethoxyphenyl)-4-(furan-2-carbonyl)-3-hydroxy-1-(2-morpholinoethyl)-1H-pyrrol-2(5H)-one] |
| > 66.7 | O=C1CC(c2ccccc2C(F)(F)F)C2=C(CC(c3cccs3)CC2=O)N1 (configuration not stated) [7-(2-thienyl)-4-[2-(trifluoromethyl)phenyl]-1,3,4,6,7,8-hexahydroquinoline-2,5-quinone] |
| > 66.7 | COCCN1C(=O)C(=O)C(C(=O)c2ccccc2)C1c1ccc(C(C)C)cc1 (configuration not stated) [(4E)-1-(2-methoxyethyl)-4-[oxidanyl(phenyl)methylidene]-5-(4-propan-2-ylphenyl)pyrrolidine-2,3-dione] |
| > 66.7 | COCCN1C(=O)C(=O)C(C(=O)c2ccccc2)C1c1ccccc1OC (configuration not stated) [(4E)-1-(2-methoxyethyl)-5-(2-methoxyphenyl)-4-[oxidanyl(phenyl)methylidene]pyrrolidine-2,3-dione] |
| > 66.7 | COc1ccc(OC)c(C2C(C(=O)c3ccccc3)C(=O)C(=O)N2c2ccc(C)c(Cl)c2)c1 (configuration not stated) [(4E)-1-(3-chloranyl-4-methyl-phenyl)-5-(2,5-dimethoxyphenyl)-4-[oxidanyl(phenyl)methylidene]pyrrolidine-2,3-dione] |
| > 66.7 | COc1ccc(C2C(C(=O)c3ccccc3)C(=O)C(=O)N2c2cccc(Cl)c2)c(OC)c1 (configuration not stated) [(4E)-1-(3-chlorophenyl)-5-(2,4-dimethoxyphenyl)-4-[hydroxy(phenyl)methylene]pyrrolidine-2,3-quinone] |
| > 66.7 | COCCCN1C(=O)C(=O)C(C(=O)c2ccccc2)C1c1ccc(C(C)C)cc1 (configuration not stated) [(4E)-1-(3-methoxypropyl)-4-[oxidanyl(phenyl)methylidene]-5-(4-propan-2-ylphenyl)pyrrolidine-2,3-dione] |
| > 66.7 | Cc1ccc(C(=O)C2C(=O)C(=O)N(c3nnc(C)s3)C2c2ccc(C(C)C)cc2)cc1 (configuration not stated) [(4E)-4-[(4-methylphenyl)-oxidanyl-methylidene]-1-(5-methyl-1,3,4-thiadiazol-2-yl)-5-(4-propan-2-ylphenyl)pyrrolidine-2,3-dione] |
| > 66.7 | CC(C)c1ccc(C2C(C(=O)c3ccccc3)C(=O)C(=O)N2Cc2cccnc2)cc1 (configuration not stated) [(4E)-4-[hydroxy(phenyl)methylene]-5-p-cumenyl-1-(3-pyridylmethyl)pyrrolidine-2,3-quinone] |
| > 66.7 | COc1ccc(C2C(C(=O)c3ccccc3)C(=O)C(=O)N2CCCn2ccnc2)c(OC)c1 (configuration not stated) [(4E)-5-(2,4-dimethoxyphenyl)-1-(3-imidazol-1-ylpropyl)-4-[oxidanyl(phenyl)methylidene]pyrrolidine-2,3-dione] |
| > 66.7 | COc1ccc(C2C(C(=O)c3ccc(C)cc3)C(=O)C(=O)N2Cc2cccnc2)c(OC)c1 (configuration not stated) [(4E)-5-(2,4-dimethoxyphenyl)-4-[(4-methylphenyl)-oxidanyl-methylidene]-1-(pyridin-3-ylmethyl)pyrrolidine-2,3-dione] |
| > 66.7 | COCCN1C(=O)C(=O)C(C(=O)c2ccccc2)C1c1cc(OC)ccc1OC (configuration not stated) [(4E)-5-(2,5-dimethoxyphenyl)-1-(2-methoxyethyl)-4-[oxidanyl(phenyl)methylidene]pyrrolidine-2,3-dione] |
| > 66.7 | COc1ccc(OC)c(C2C(C(=O)c3ccccc3)C(=O)C(=O)N2c2cccnc2)c1 (configuration not stated) [(4E)-5-(2,5-dimethoxyphenyl)-4-[hydroxy(phenyl)methylene]-1-(3-pyridyl)pyrrolidine-2,3-quinone] |
| > 66.7 | COCCCN1C(=O)C(=O)C(C(=O)c2ccccc2)C1c1ccc(O)c(OC)c1 (configuration not stated) [(4E)-5-(3-methoxy-4-oxidanyl-phenyl)-1-(3-methoxypropyl)-4-[oxidanyl(phenyl)methylidene]pyrrolidine-2,3-dione] |
| > 66.7 | O=C1C(=O)N(CN2CCOCC2)C(c2ccc(Br)cc2)C1C(=O)c1ccccc1 (configuration not stated) [(4E)-5-(4-bromophenyl)-1-(morpholin-4-ylmethyl)-4-[oxidanyl(phenyl)methylidene]pyrrolidine-2,3-dione] |

Source: BindingDB's records for doi:10.7270/Q22V2DH9 (Nmmlsc, 2007)
